Columns and labels:
[1] = tested on: PDE1 partially purified from bovine heart; test: PDE1 biochemical enzyme assay ([3H]cAMP hydrolysis); details: 100 μM; for % Inhibition of PDE1: Example 3
Experimental: In this example, a racemic mixture of flosequinan and the (+) and (−) enantiomers of flosequinan were subjected to biochemical enzyme assays to determine their respective percent inhibition of a variety of phosphodiesterases (PDE1-PDE6). The reaction conditions for each PDE assay were as follows. PDE1: PDE1 partially purified from bovine heart was used. A racemic mixture of flosequinan, and each enantiomer of flosequinan, all at a molar concentration of 100 μM, were independently incubated with 13 μg PDE1 enzyme, 1.0 μM [^3H]cAMP and CaCl2/calmodulin in Tris buffer pH 7.5 for 20 minutes at 30° C. The reaction was terminated by boiling for 2 minutes, and the resulting AMP was converted to adenosine by addition of 10 mg/ml snake venom nucleotidase and further incubation at 30° C. for 10 minutes. Unhydrolyzed cAMP was bound to AGI-X2 resin, and the remaining [^3H]adenosine in the aqueous phase was quantitated by scintillation counting.

[2] = following oral administration; cited from earlier work
[3] = target: T1, PDE3 partially purified from human platelets (Homo sapiens, UniProt Q14432); test: PDE3 biochemical enzyme assay ([3H]cAMP hydrolysis); details: 100 μM
T1 construct: PDE3 partially purified from human platelets was used; from tissue; host or cells: human platelets
T1 sequence (Q14432 whole entry): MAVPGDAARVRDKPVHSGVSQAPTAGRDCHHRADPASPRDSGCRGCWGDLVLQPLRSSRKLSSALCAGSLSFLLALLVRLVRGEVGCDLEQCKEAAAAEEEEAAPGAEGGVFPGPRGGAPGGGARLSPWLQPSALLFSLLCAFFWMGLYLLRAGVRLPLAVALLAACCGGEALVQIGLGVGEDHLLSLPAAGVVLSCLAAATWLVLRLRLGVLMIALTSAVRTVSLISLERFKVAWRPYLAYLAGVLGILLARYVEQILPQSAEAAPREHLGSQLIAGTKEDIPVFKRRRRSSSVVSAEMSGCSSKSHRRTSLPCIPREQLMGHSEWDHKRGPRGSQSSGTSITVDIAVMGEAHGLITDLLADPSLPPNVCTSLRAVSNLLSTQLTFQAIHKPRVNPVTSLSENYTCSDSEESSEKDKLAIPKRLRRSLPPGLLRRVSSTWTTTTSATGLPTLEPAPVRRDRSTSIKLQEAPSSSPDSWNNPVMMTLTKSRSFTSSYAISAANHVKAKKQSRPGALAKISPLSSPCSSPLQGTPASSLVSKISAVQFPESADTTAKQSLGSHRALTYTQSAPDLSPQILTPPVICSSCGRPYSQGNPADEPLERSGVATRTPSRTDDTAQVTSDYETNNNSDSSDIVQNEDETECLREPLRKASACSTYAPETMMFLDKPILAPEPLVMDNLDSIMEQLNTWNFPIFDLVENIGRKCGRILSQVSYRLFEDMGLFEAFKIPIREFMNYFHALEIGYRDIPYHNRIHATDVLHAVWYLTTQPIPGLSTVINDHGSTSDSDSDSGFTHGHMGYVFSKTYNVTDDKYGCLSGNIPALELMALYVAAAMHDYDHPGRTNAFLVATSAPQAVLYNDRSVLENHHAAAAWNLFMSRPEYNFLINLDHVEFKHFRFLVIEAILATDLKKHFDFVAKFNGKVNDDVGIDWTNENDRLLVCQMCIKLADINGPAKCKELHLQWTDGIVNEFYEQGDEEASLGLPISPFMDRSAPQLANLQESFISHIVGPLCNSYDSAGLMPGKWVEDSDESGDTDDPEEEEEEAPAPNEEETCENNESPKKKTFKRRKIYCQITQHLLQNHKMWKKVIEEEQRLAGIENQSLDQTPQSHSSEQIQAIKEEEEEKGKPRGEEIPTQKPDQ
Experimental: PDE3: PDE3 partially purified from human platelets was used. A racemic mixture of flosequinan, and each enantiomer of flosequinan, all at a molar concentration of 100 μM, were independently incubated with 13 μg PDE3 enzyme and 1 μM cAMP containing 0.01 μM [^3H]cAMP in Tris buffer pH 7.5 for 20 minutes at 30° C. The reaction was terminated by boiling for 2 minutes, and the resulting AMP was converted to adenosine by addition of 10 mg/ml snake venom nucleotidase and further incubation at 30° C. for 10 minutes. Unhydrolyzed cAMP was bound to AGI-X2 resin, and the remaining [^3H]adenosine in the aqueous phase was quantitated by scintillation counting.

[4] = cited from earlier work
[5] = target: T2, PDE6 partially purified from bovine retinal rod and activated by trypsin (Bos taurus, UniProt P11541+P23439); test: PDE6 biochemical enzyme assay ([3H]cGMP hydrolysis); details: Example 1; versus Viagra 0.3 μM
T2 construct: from tissue; host or cells: bovine retinal rod
T2 sequence (P11541 2-856 limits assumed): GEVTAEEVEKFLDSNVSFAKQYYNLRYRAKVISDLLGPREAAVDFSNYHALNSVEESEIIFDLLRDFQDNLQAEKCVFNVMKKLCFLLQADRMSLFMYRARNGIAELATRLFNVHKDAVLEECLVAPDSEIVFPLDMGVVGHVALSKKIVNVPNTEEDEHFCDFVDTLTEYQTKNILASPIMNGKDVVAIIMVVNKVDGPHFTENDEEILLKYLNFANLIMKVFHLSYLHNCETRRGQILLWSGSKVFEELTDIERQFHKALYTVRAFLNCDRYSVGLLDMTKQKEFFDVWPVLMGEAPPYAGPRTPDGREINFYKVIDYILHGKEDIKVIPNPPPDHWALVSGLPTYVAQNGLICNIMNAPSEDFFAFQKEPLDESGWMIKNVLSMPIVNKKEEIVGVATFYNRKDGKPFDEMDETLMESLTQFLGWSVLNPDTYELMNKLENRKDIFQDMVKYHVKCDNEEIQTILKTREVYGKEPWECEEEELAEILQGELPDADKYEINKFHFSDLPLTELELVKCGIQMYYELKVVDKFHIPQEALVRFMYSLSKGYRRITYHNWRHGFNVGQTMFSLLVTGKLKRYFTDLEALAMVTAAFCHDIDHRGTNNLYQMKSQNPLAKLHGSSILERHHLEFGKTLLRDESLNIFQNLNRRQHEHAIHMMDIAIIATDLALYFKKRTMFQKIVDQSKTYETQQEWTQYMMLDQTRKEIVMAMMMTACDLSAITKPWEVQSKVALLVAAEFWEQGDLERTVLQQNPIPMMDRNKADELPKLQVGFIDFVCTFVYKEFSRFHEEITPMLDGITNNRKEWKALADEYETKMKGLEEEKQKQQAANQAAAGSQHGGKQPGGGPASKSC
T2 sequence (P23439 2-850 limits assumed): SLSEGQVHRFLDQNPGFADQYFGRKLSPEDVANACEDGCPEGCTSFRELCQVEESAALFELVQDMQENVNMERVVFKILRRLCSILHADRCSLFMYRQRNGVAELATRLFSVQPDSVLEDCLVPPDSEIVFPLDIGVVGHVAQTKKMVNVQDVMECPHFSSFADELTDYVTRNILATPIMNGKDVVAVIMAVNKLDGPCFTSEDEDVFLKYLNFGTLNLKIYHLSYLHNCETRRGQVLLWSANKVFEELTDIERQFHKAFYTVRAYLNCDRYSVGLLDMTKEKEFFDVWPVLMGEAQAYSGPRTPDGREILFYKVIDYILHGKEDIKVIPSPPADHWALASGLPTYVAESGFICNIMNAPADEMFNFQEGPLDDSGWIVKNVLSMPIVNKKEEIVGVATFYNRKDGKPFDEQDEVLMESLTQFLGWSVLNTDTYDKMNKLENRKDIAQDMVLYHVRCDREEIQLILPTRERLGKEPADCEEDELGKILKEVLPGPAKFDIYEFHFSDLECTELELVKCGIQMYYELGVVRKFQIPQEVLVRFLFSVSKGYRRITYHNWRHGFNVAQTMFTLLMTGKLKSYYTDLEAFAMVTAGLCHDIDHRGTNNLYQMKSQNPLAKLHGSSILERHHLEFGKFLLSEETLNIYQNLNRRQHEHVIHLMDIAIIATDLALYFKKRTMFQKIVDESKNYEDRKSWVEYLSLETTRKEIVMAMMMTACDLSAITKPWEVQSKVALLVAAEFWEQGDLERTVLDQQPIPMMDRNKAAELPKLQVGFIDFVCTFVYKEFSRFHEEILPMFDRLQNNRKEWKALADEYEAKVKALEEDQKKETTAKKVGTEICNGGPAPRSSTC
Experimental: PDE6 partially purified from bovine retinal rod and activated by trypsin was used. […] Each reaction was terminated by raising the temperature to 100° C. for 2 minutes. The resulting GMP was converted to guanosine by addition of 10 mg/ml snake venom nucleotidase and further incubated at 30° C. for 10 minutes. Unhydrolyzed cGMP was bound to AGI-X2 resin, and [^3H]guanosine remaining in the aqueous phase was quantitated by scintillation counting.
PDE6: PDE6 partially purified from bovine retinal rod and activated by trypsin was used. […] Each reaction was terminated by boiling for 2 minutes. The resulting GMP was converted to guanosine by addition of 10 mg/ml snake venom nucleotidase, and further incubated at 30° C. for 10 minutes. Unhydrolyzed cGMP was bound to AGI-X2 resin, and [^3H]guanosine remaining in the aqueous phase was quantitated by scintillation counting.

[6] = Solubility of flosequinan; type: physicochemical; details: water; organic solvents
Source text: Thus, while the present invention is not limited by the form of oral administration, aqueous and organic solution of flosequinan for oral administration is contemplated. Likewise, flosequinan can be associated with a solid pharmaceutical carrier for solid oral administration (i.e., in pill form).

Cn1cc([S+](C)[O-])c(=O)c2ccc(F)cc21 (single isomer, unassigned; (-)) [(−)-flosequinan]
% Inhibition of PDE1 [1]: 11%

O=C1CCc2cc(OCCCCc3nnnn3C3CCCCC3)ccc2N1 [cilostazol, 6-[4-(1-cyclohexyl-1H-tetrazol-5-yl)butoxy]-3,4-dihydro-2(1H)-quinolinone]
time of peak plasma concentrations of cilostazol [2]: 2 to 4 h

Cn1cc([S@@+](C)[O-])c(=O)c2ccc(F)cc21 [(+)-flosequinan]
PDE1 inhibitory activity compared with the (−) enantiomer of flosequinan [1]: more PDE1 and PDE3 inhibitory activity | % Inhibition of PDE1 [1]: 28% | PDE3 inhibitory activity compared with the (−) enantiomer of flosequinan [3]: more PDE1 and PDE3 inhibitory activity

Cn1cc([S+](C)[O-])c(=O)c2ccc(F)cc21 (racemic) [Flosequinan, 7-fluoro-1-methyl-3-(methylsulphinyl)-4(1H)-quinolone]
time of peak plasma concentrations of flosequinan ([4]; following oral administration): 1 to 2 h | time of peak metabolite plasma levels ([4]; following oral dosage of flosequinan): about seven | mean absolute bioavailability ([4]; oral, single dose of fifty milligrams): 72% | % Inhibition of PDE1 [1]: 31% | times more compound on a molar basis than Viagra for around 50% inhibition of PDE6 [5]: more than 300 times | solubility [6]: water soluble and is soluble in many organic solvents
